Results taken from patent US20240051946A1, “TARGETED PROTEIN DEGRADATION OF PARP14 FOR USE IN THERAPY” (Ribon Therapeutics, Inc., priority 2022, published 2024).

The compounds below were run against T1, catalytic domain of human PARP14 (residues 1611 to 1801) with NanoLuc tag (Homo sapiens, UniProt Q460N5) (assay: NanoLuc assay for the degradation of PARP14). Details: Assay A; NanoLuc-PARP14 overexpressed in HEK-293T cells; 2 hours at 37 degrees; luminescence.
T1 construct: expressed in transfected cells; host or cells: HEK-293T cells (ATCC), plasmid pRTX240 in pcDNA3.1(-)
T1 sequence (Q460N5 1611-1801): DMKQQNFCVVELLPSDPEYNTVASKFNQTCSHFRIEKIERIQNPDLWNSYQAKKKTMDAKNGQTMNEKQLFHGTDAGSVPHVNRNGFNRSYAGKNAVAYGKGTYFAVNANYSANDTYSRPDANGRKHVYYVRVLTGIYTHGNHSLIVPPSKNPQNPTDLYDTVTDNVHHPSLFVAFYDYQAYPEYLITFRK
Assay type: cell-based
Protocol: The catalytic domain of human PARP14 (residues 1611 to 1801, GenBank Accession No. NM_017554) was inserted into the pcDNA3.1(−) vector. The insert also contained a NanoLuc tag on the N terminus of the PARP14 protein.
Degradation of PARP14 protein was assessed using measurement of the NanoLuc tag as proxy for the PARP14 protein. PARP14 with NanoLuc tag was overexpressed in […] cells (ATCC) using the plasmid described in Table 1. Plasmid DNA was diluted in empty vector DNA then added to 1.163 mL of phenol red free OptiMEM (Thermo Fisher). Plasmid DNA concentrations used in each assay described in Table 1. The plasmid DNA was mixed with 78.5 μL of Fugene HD (Promega) and allowed to incubate 5 minutes.
Next, 1.125 mL were added to 10 million 293T cells in DMEM (Thermo Fisher) supplemented with 10% FBS (VWR) and 1× Glutamax (Gibco). The transfection was incubated for 24 hrs at 37 degrees in an incubator supplemented with 5% CO2. The cells were then trypsinized and brought up in phenol red free OptiMEM media. Transfected HEK-293T cells were diluted to […] and then added to assay plate (Corning 3574) using a Multidrop (Thermo Fisher) to add 40 μL per well of the 384 well plate, resulting in 5,000 cells per well. 40 nL of a dose response curve diluted in DMSO of each test compound was added to the cell plate using a Mosquito (TTP Labtech) and the plate was incubated at 37 degrees for 2 hours. Assay plate was brought to room temperature then 20 μL per well of NanoGlo (Promega) was added to the plate. Luminescence was measured on an Envision (Perkin Elmer).
The average DMSO was calculated from 32 wells containing 0.1% DMSO only in columns 12 and 24 of the assay plate. The % of DMSO values were calculated as described below: […]
The % of DMSO values were plotted as a function of compound concentration and the following 4-parameter fit was applied to derive the DC50 values:
where top, bottom, and Hill Coefficient are allowed to float. Y is the % of DMSO and X is the compound concentration.
DC50 data for the Example compounds is provided below in Table 2 (“+” is <0.1 μM; “++” is ≥0.1 μM and <1 μM; and “+++” is ≥1 μM).

Row | DC50 | SMILES
1 | < 100 nM | CC(=O)N1CCC(COc2cc(F)c3c(=O)[nH]c(CSC4CCN(CC5CN(c6cccc7c6CN(C6CCC(=O)NC6=O)C7=O)C5)CC4)nc3c2)CC1 (centres unmarked) [Example 41, 3-(4-(3-((4-(((7-((1-acetylpiperidin-4-yl)methoxy)-5-fluoro-4-oxo-3,4-dihydroquinazolin-2-yl)methyl)thio)piperidin-1-yl)methyl)azetidin-1-yl)-1-oxoisoindolin-2-yl)piperidine-2,6-dione]
2 | < 100 nM | O=C1CCC(N2C(=O)c3ccc(N4CCC(CN5CCC(SCc6nc7cc(OCC8CC8)cc(F)c7c(=O)[nH]6)CC5)CC4)cc3C2=O)C(=O)N1 (centres unmarked) [Example 40, 5-(4-((4-(((7-(cyclopropylmethoxy)-5-fluoro-4-oxo-3,4-dihydroquinazolin-2-yl)methyl)thio)piperidin-1-yl)methyl)piperidin-1-yl)-2-(2,6-dioxopiperidin-3-yl)isoindoline-1,3-dione]
3 | < 100 nM | O=C(CN1CCC(SCc2nc3cc(OCC4CCOCC4)cc(F)c3c(=O)[nH]2)CC1)NCCCC(=O)N1CCC(c2ccc(NC3CCC(=O)NC3=O)cc2)CC1 (centres unmarked) [Example 8, N-(4-(4-(4-((2,6-dioxopiperidin-3-yl)amino)phenyl)piperidin-1-yl)-4-oxobutyl)-2-(4-(((5-fluoro-4-oxo-7-((tetrahydro-2H-pyran-4-yl)methoxy)-3,4-dihydroquinazolin-2-yl)methyl)thio)piperidin-1-yl)acetamide]
4 | < 100 nM | CC(=O)N1CCC(COc2cc(F)c3c(=O)[nH]c(CSC4CCN(CC(=O)N5CCC(CN6CCN(c7ccc8c(c7)C(=O)N(C7CCC(=O)NC7=O)C8=O)CC6)CC5)CC4)nc3c2)CC1 (centres unmarked) [Example 28, 5-(4-((1-(2-(4-(((7-((1-acetylpiperidin-4-yl)methoxy)-5-fluoro-4-oxo-3,4-dihydroquinazolin-2-yl)methyl)thio)piperidin-1-yl)acetyl)piperidin-4-yl)methyl)piperazin-1-yl)-2-(2,6-dioxopiperidin-3-yl)isoindoline-1,3-dione]
5 | 100 to 1000 nM | O=C(CN1CCC(SCc2nc3cc(OCC4CCOCC4)cc(F)c3c(=O)[nH]2)CC1)NCCCCNC(=O)c1cccc(N2CCC(=O)NC2=O)c1 [Example 4, 3-(2,4-dioxotetrahydropyrimidin-1(2H)-yl)-N-(4-(2-(4-(((5-fluoro-4-oxo-7-((tetrahydro-2H-pyran-4-yl)methoxy)-3,4-dihydroquinazolin-2-yl)methyl)thio)piperidin-1-yl)acetamido)butyl)benzamide]
6 | < 100 nM | CC(=O)N1CCC(COc2cc(F)c3c(=O)[nH]c(CSC4CCN(CC(=O)Nc5ccc6c(c5)C(=O)N(C5CCC(=O)NC5=O)C6=O)CC4)nc3c2)CC1 (centres unmarked) [Example 32, 2-(4-(((7-((1-acetylpiperidin-4-yl)methoxy)-5-fluoro-4-oxo-3,4-dihydroquinazolin-2-yl)methyl)thio)piperidin-1-yl)-N-(2-(2,6-dioxopiperidin-3-yl)-1,3-dioxoisoindolin-5-yl)acetamide]
7 | < 100 nM | O=C(CN1CCC(SCc2nc3cc(OCC4CCOCC4)cc(F)c3c(=O)[nH]2)CC1)NCC(=O)N1CCC(c2ccc(NC3CCC(=O)NC3=O)cc2)CC1 (centres unmarked) [Example 10, N-(2-(4-(4-((2,6-dioxopiperidin-3-yl)amino)phenyl)piperidin-1-yl)-2-oxoethyl)-2-(4-(((5-fluoro-4-oxo-7-((tetrahydro-2H-pyran-4-yl)methoxy)-3,4-dihydroquinazolin-2-yl)methyl)thio)piperidin-1-yl)acetamide]
8 | < 100 nM | CC(=O)N1CCC(COc2cc(F)c3c(=O)[nH]c(CSC4CCN(CC5CCN(c6cccc7c6C(=O)N(C6CCC(=O)NC6=O)C7=O)CC5)CC4)nc3c2)CC1 (centres unmarked) [Example 39, 4-(4-((4-(((7-((1-acetylpiperidin-4-yl)methoxy)-5-fluoro-4-oxo-3,4-dihydroquinazolin-2-yl)methyl)thio)piperidin-1-yl)methyl)piperidin-1-yl)-2-(2,6-dioxopiperidin-3-yl)isoindoline-1,3-dione]
9 | < 100 nM | O=C(CN1CCC(SCc2nc3cc(OCC4CCOCC4)cc(F)c3c(=O)[nH]2)CC1)NCCN1CCC(c2cccc(NC3CCC(=O)NC3=O)c2)CC1 (centres unmarked) [Example 15, N-(2-(4-(3-((2,6-dioxopiperidin-3-yl)amino)phenyl)piperidin-1-yl)ethyl)-2-(4-(((5-fluoro-4-oxo-7-((tetrahydro-2H-pyran-4-yl)methoxy)-3,4-dihydroquinazolin-2-yl)methyl)thio)piperidin-1-yl)acetamide]
10 | < 100 nM | O=C(CN1CCC(SCc2nc3cc(OCC4CCOCC4)cc(F)c3c(=O)[nH]2)CC1)NCCN1CCC(c2ccc(NC3CCC(=O)NC3=O)cc2)CC1 (centres unmarked) [Example 9, N-(2-(4-(4-((2,6-dioxopiperidin-3-yl)amino)phenyl)piperidin-1-yl)ethyl)-2-(4-(((5-fluoro-4-oxo-7-((tetrahydro-2H-pyran-4-yl)methoxy)-3,4-dihydroquinazolin-2-yl)methyl)thio)piperidin-1-yl)acetamide]

Second part, the compound before the results:

Row | SMILES | DC50
11 | O=C(CN1CCC(SCc2nc3cc(OCC4CCOCC4)cc(F)c3c(=O)[nH]2)CC1)NCCCCN1CCC(c2cccc(NC3CCC(=O)NC3=O)c2)CC1 (centres unmarked) [Example 13, N-(4-(4-(3-((2,6-dioxopiperidin-3-yl)amino)phenyl)piperidin-1-yl)butyl)-2-(4-(((5-fluoro-4-oxo-7-((tetrahydro-2H-pyran-4-yl)methoxy)-3,4-dihydroquinazolin-2-yl)methyl)thio)piperidin-1-yl)acetamide] | < 100 nM
12 | O=C1CCC(N2C(=O)c3cccc(N4CCC(CN5CCC(C(=O)N6CCC(SCc7nc8cc(NC9CCCC9)cc(F)c8c(=O)[nH]7)CC6)CC5)CC4)c3C2=O)C(=O)N1 (centres unmarked) [Example 23, 4-(4-((4-(4-(((7-(cyclopentylamino)-5-fluoro-4-oxo-3,4-dihydroquinazolin-2-yl)methyl)thio)piperidine-1-carbonyl)piperidin-1-yl)methyl)piperidin-1-yl)-2-(2,6-dioxopiperidin-3-yl)isoindoline-1,3-dione] | < 100 nM
13 | CC(=O)N1CCC(COc2cc(F)c3c(=O)[nH]c(CSC4CCN(c5ccc6c(c5)C(=O)N(C5CCC(=O)NC5=O)C6=O)CC4)nc3c2)CC1 (centres unmarked) [Example 30, 5-(4-(((7-((1-acetylpiperidin-4-yl)methoxy)-5-fluoro-4-oxo-3,4-dihydroquinazolin-2-yl)methyl)thio)piperidin-1-yl)-2-(2,6-dioxopiperidin-3-yl)isoindoline-1,3-dione] | < 100 nM
14 | CC(=O)N1CCC(COc2cc(F)c3c(=O)[nH]c(CSC4CCN(C(=O)CNc5ccc6c(c5)C(=O)N(C5CCC(=O)NC5=O)C6=O)CC4)nc3c2)CC1 (centres unmarked) [Example 24, 5-((2-(4-(((7-((1-acetylpiperidin-4-yl)methoxy)-5-fluoro-4-oxo-3,4-dihydroquinazolin-2-yl)methyl)thio)piperidin-1-yl)-2-oxoethyl)amino)-2-(2,6-dioxopiperidin-3-yl)isoindoline-1,3-dione] | < 100 nM
15 | CC(=O)N1CCC(COc2cc(F)c3c(=O)[nH]c(CCC4CCN(C(=O)C5CCN(CC6CCN(c7cccc8c7C(=O)N(C7CCC(=O)NC7=O)C8=O)CC6)CC5)CC4)nc3c2)CC1 (centres unmarked) [Example 26, 4-(4-((4-(4-(2-(7-((1-acetylpiperidin-4-yl)methoxy)-5-fluoro-4-oxo-3,4-dihydroquinazolin-2-yl)ethyl)piperidine-1-carbonyl)piperidin-1-yl)methyl)piperidin-1-yl)-2-(2,6-dioxopiperidin-3-yl)isoindoline-1,3-dione] | < 100 nM
16 | CC(=O)N1CCC(COc2cc(F)c3c(=O)[nH]c(CSC4CCN(CC#Cc5cccc(N6CCC(=O)NC6=O)c5)CC4)nc3c2)CC1 [Example 38, 1-(3-(3-(4-(((7-((1-acetylpiperidin-4-yl)methoxy)-5-fluoro-4-oxo-3,4-dihydroquinazolin-2-yl)methyl)thio)piperidin-1-yl)prop-1-yn-1-yl)phenyl)dihydropyrimidine-2,4(1H,3H)-dione] | < 100 nM
17 | CC(=O)N1CCC(COc2cc(F)c3c(=O)[nH]c(CSC4CCN(CC(=O)N5CCC(c6ccc(N7CCN(C8CCC(=O)NC8=O)C7=O)cc6)CC5)CC4)nc3c2)CC1 (centres unmarked) [Example 18, 3-(3-(4-(1-(2-(4-(((7-((1-acetylpiperidin-4-yl)methoxy)-5-fluoro-4-oxo-3,4-dihydroquinazolin-2-yl)methyl)thio)piperidin-1-yl)acetyl)piperidin-4-yl)phenyl)-2-oxoimidazolidin-1-yl)piperidine-2,6-dione] | < 100 nM
